In one data set the test system is L6. As to the kind of experiment: Cytotoxicity against rat L6 cells after 72 hrs by alamar blue assay. The data set is classed as cell-based. The settings on record: L6, 72 h. On the technique in general: Alamar Blue is a resazurin reagent that responds to reducing activity.
The test system of a further data set is Trypanosoma brucei. Briefly: Inhibition of recombinant Trypanosoma brucei GAPDH assessed as oxidative phosphorylation of D-glyceraldehyde-3-phosphate to 1,3-bisphosphoglycerate at 5 uM by spectrophotometric method relative to 2-phenoxy-1,4-naphthoquinone.
Another data set relates to Trypanosoma cruzi. As to the kind of experiment: Antitrypanosomal activity against trypomastigote forms of Trypanosoma cruzi Tulahuen C4 expressing LacZ gene infected in rat L6 cells after 96 hrs by inverted microscope analysis. It counts as functional, organism-based. To be noted: Tulahuen C4, L6, 96 h.
A further data set concerns Leishmania donovani. Briefly: Antitrypanosomal activity against amastigotes of Leishmania donovani MHOM/ET/67/L82 after 72 hrs by inverted microscope analysis. The settings on record: MHOM/ET/67/L82, 72 h. The data set is classed as functional, organism-based.
A short description of data set [1]: Selectivity index, ratio of IC50 for rat L6 cells to IC50 for bloodstream forms of Trypanosoma brucei rhodesiense STIB 900. The data set is classed as toxicity, cell-based. The settings on record: read-out: Ratio IC50.
Data set [2] is described as follows: Selectivity index, ratio of IC50 for rat L6 cells to IC50 for trypomastigote forms of Trypanosoma cruzi Tulahuen C4. It counts as toxicity, cell-based. The settings on record: read-out: Ratio IC50.
The species named for data set [3] is Bos taurus. Briefly: Inhibition of electron transport protein complex 2 in bovine hear mitochondria assessed as reduction of succinate-induced oxygen consumption at 5 uM.
The test system of data set [4] is Trypanosoma brucei rhodesiense. Briefly: Antitrypanosomal activity against bloodstream forms of Trypanosoma brucei rhodesiense STIB 900 after 72 hrs by alamar blue assay. The data set is classed as functional, organism-based. The settings on record: STIB 900, 72 h.
Data set [5] can be described thus: Selectivity index, ratio of IC50 for rat L6 cells to IC50 for amastigotes of Leishmania donovani MHOM/ET/67/L82. The data set is classed as toxicity, cell-based. The settings on record: read-out: Ratio IC50.
For data set [6], the species on record is Bos taurus. As to the kind of experiment: Inhibition of electron transport protein complex 1 in bovine hear mitochondria assessed as reduction of NADH-induced ROS production at 10 uM by fluorescence plate reader analysis.
Data set [7] is described as follows: Cytotoxicity against HDF after 24 hrs by MTT assay. The settings on record: Homo sapiens.
For data set [8], the system named is HT-29. Briefly: Cytotoxicity against human HT-29 cells after 24 hrs by MTT assay. To be noted: HT-29, 24 h. It counts as functional, cell-based. On the technique in general: Tetrazolium assays rely on reduction of a dye to a coloured formazan, in cell work by metabolically active cells.
Data set [9] has as its system IGROV-1. As to the kind of experiment: Cytotoxicity against human IGROV1 cells after 24 hrs by MTT assay. It counts as functional, cell-based. The settings on record: IGROV-1, 24 h.
Data set [10] has as its target Glyceraldehyde-3-phosphate dehydrogenase (Homo sapiens, UniProt P04406). Briefly: Inhibition of recombinant human GAPDH assessed as oxidative phosphorylation of D-glyceraldehyde-3-phosphate to 1,3-bisphosphoglycerate by spectrophotometric method.
Data set [11] deals with HT-29. Briefly: Selectivity index, ratio of IC50 for HDF to IC50 for human HT-29 cells.
The species named for data set [12] is Bos taurus. Briefly: Inhibition of electron transport protein complex 1 in bovine hear mitochondria assessed as reduction of NADH-induced oxygen consumption at 5 uM.
The nature of data set [13]: Inhibition of recombinant Trypanosoma brucei GAPDH assessed as oxidative phosphorylation of D-glyceraldehyde-3-phosphate to 1,3-bisphosphoglycerate by spectrophotometric method.
Data set [14] has as its system IGROV-1. As to the kind of experiment: Selectivity index, ratio of IC50 for HDF to IC50 for human IGROV1 cells.
For data set [15], the species on record is Bos taurus. As to the kind of experiment: Inhibition of electron transport protein complex 1 in bovine hear mitochondria assessed as enzyme activity per min/mg of protein using […] as substrate at 10 uM.
For data set [16], the species on record is Bos taurus. As to the kind of experiment: Inhibition of electron transport protein complex 1 in bovine hear mitochondria assessed as reduction of NADH-induced oxygen consumption up to 10 uM.

Calls of active or inactive are those of the source. No cut-off for these calls is given here.

Sequence of Glyceraldehyde-3-phosphate dehydrogenase (P04406 whole entry): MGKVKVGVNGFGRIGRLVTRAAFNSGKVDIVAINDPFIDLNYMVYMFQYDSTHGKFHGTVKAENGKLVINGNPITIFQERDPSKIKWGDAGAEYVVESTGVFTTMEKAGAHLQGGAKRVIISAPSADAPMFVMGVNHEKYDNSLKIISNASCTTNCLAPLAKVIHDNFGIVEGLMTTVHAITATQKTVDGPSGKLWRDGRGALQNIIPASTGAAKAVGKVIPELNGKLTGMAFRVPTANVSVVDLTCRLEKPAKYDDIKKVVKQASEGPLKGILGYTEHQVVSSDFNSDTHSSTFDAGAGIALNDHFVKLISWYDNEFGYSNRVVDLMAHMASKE

For the compound `O=C1C=C(Oc2ccc(F)cc2)C(=O)c2ccccc21`, the IC50 (as a rule, the concentration at which inhibition is half-maximal) was determined as 4.51 µM in the data set with L6, 3.91 µM in the data set with Trypanosoma cruzi, 1.82 µM in the data set with Leishmania donovani and 4.06 µM in data set [4]. Also, the inhibition – broadly, the change of the read-out against control, counted positive when it falls – in the data set with Trypanosoma brucei stood at 80%. Also, the selectivity ratio in [1] came out at 1.11; in data set [2], 1.15; in data set [5] it was 2.47. Besides, the inhibition result in the data set filed under Bos taurus [3] is “inactive”.

Turning to `COc1ccc(OC2=CC(=O)c3ccccc3C2=O)cc1`, the IC50 with L6 is 6.1 µM; with Trypanosoma cruzi it was 4.17 µM; in the data set on Leishmania donovani, 5.32 µM; in [4] it was 2.43 µM. Further, in the data set with Trypanosoma brucei, the inhibition is 28%. Besides, the selectivity ratio in data set [1] came out at 2.51; in data set [2] it was 1.46; in data set [5], 1.15. Also, the inhibition result in the data set listed under Bos taurus [3] is “inactive”.

With `O=C1C(Oc2ccccc2)=CC(=O)c2c(O)cccc21`, the IC50 amounted to 0.26 µM in the data set with L6; 15 µM in data set [7]; 2.42 µM in the data set on HT-29 [8]; 2.52 µM in the data set with IGROV-1 [9]; 2.41 µM in data set [10]; 8.41 µM in the data set with Leishmania donovani. For the same compound, the IC50 in data set [13] came out at 11.6 µM; in data set [4] it was 4.43 µM. For the same compound, the inhibition result in the data set listed under Bos taurus [6] was “Active”. Further, the inhibition was determined as 88% in the data set with Trypanosoma brucei and 40% in the data set filed under Bos taurus [12]. Also, the “Ratio IC50” value worked out at 6.2 in the data set with HT-29 [11] and 5.96 in the data set on IGROV-1 [14]. Besides, the values for the selectivity ratio in data set [1] and in [5] were 0.06 and 0.03, respectively. In addition, the inhibition entry in the data set listed under Bos taurus [3] was “inactive”.

In the case of `COc1cccc2c1C(=O)C(Oc1ccc(F)cc1)=CC2=O`, the IC50 with L6 was found to be 0.77 µM; in [7], 11.9 µM; in the data set on HT-29 [8], 2.7 µM; with IGROV-1 [9], 1.73 µM; in data set [10] it was 1.34 µM; with Leishmania donovani, 5.97 µM. Moreover, the IC50 in data set [13] is 9.92 µM; in [4], 4.76 µM. Also, the inhibition result in the data set listed under Bos taurus [6] was “Active”. The “Ratio IC50” value with HT-29 [11] is reported as 4.4; in the data set on IGROV-1 [14], 6.87. Further, the Activity in the data set listed under Bos taurus [15] was determined as 0.053 µmol/min/mg. For the same compound, in the data set listed under Bos taurus [12], the inhibition stood at 40%. Further, the selectivity ratio in [1] came to 0.16; in [5], 0.13. Moreover, the inhibition entry in the data set listed under Bos taurus [3] was “inactive”.

Regarding `O=C1C=C(Oc2ccccc2)C(=O)c2ccccc21`, in the data set filed under Bos taurus [6], the inhibition entry is “Active”. Besides, the IC50 in data set [7] was 9.84 µM; in the data set on HT-29 [8], 4.4 µM; in the data set with IGROV-1 [9], 3.43 µM; in data set [10], 0.59 µM; in data set [13] it was 5.73 µM. In addition, the “Ratio IC50” value was 2.24 in the data set on HT-29 [11] and 2.87 in the data set with IGROV-1 [14]. Further, the Activity in the data set listed under Bos taurus [15] amounted to 0.052 µmol/min/mg. The inhibition entry in the data set filed under Bos taurus [16] is “inactive”.

Consider `Cc1ccc(OC2=CC(=O)c3cccc(O)c3C2=O)cc1`, for which the IC50 with L6 came out at 4.03 µM; with Trypanosoma cruzi, 7.39 µM; with Leishmania donovani, 2.99 µM; in data set [4] it was 2.58 µM. The inhibition with Trypanosoma brucei is 44%. The selectivity ratio in data set [1] worked out at 1.56; in data set [2], 0.54; in data set [5], 1.34. The inhibition entry in the data set filed under Bos taurus [3] was “inactive”.

For `CC(=O)Nc1ccc(OC2=CC(=O)c3ccccc3C2=O)cc1`, the IC50 with L6 turned out to be 3.35 µM; with Trypanosoma cruzi, 4.17 µM; with Leishmania donovani, 4.04 µM; in [4] it was 2.4 µM. Moreover, the inhibition in the data set on Trypanosoma brucei was found to be 68%. In addition, the selectivity ratio turned out to be 1.39 in [1], 0.8 in data set [2] and 0.83 in data set [5]. The inhibition entry in the data set listed under Bos taurus [3] is “inactive”.

For `Cc1ccc(OC2=CC(=O)c3ccccc3C2=O)cc1`, the IC50 turned out to be 3.82 µM in the data set with L6, 1.62 µM in the data set on Trypanosoma cruzi, 3.41 µM in the data set on Leishmania donovani and 2.28 µM in [4]. For the same compound, the inhibition with Trypanosoma brucei is 24%. For the same compound, the selectivity ratio in data set [1] was determined as 1.67; in [2], 2.35; in [5] it was 1.12. Moreover, in the data set filed under Bos taurus [3], the inhibition result was “inactive”.

Consider `COc1cccc2c1C(=O)C=C(Oc1ccc(NC(C)=O)cc1)C2=O`, for which the IC50 is 4.89 µM with L6, 4.06 µM in the data set with Trypanosoma cruzi, 4.77 µM with Leishmania donovani and 0.67 µM in [4]. For the same compound, the inhibition in the data set with Trypanosoma brucei turned out to be 52%. In addition, the selectivity ratio in data set [1] came out at 7.3; in data set [2], 1.2; in data set [5], 1.02. Further, in the data set listed under Bos taurus [3], the inhibition entry was “inactive”.

On to `COc1ccc(OC2=CC(=O)c3cc4ccccc4cc3C2=O)cc1`, for which the IC50 stood at 0.24 µM in the data set with L6; 17.1 µM in data set [7]; 3.83 µM in the data set on HT-29 [8]; 2.31 µM with IGROV-1 [9]; 1.41 µM in data set [10]; 2.55 µM in the data set with Leishmania donovani. Moreover, the IC50 in [13] came out at 15.6 µM; in [4], 0.38 µM. Besides, in the data set listed under Bos taurus [6], the inhibition result was “Active”. Moreover, the inhibition in the data set on Trypanosoma brucei was 92%; in the data set filed under Bos taurus [12] it was 40%. Moreover, the “Ratio IC50” value worked out at 4.46 in the data set on HT-29 [11] and 7.4 in the data set with IGROV-1 [14]. The Activity in the data set listed under Bos taurus [15] was determined as 0.029 µmol/min/mg. Also, the results for the selectivity ratio in [1] and in [5] were 0.63 and 0.09, respectively. Also, in the data set listed under Bos taurus [3], the inhibition entry was “inactive”.
